Experimental findings from patent publication US6355685B1, “Method of treating anxiety disorders” (Knoll Pharmaceutical Company, priority 1999, dated 2002) are described below.

This assay deals with rat elevated plus-maze. In words: rat elevated plus-maze (animal model of anxiety). The class given is in vivo. Particulars: 3 mg/kg po. The method, then:
This model was carried out as described in J. Neurosci. Methods 1985; 14:149-167.

In the case of `CC(C)CC(N(C)C)C1(c2ccc(Cl)cc2)CCC1.Cl.O` (stereo not shown) [N-{1-[1-(4-chlorophenyl)cyclobutyl]-3-methylbutyl}-N,N-dimethylamine hydrochloride monohydrate], the “open: total arm entry ratio” value is listed as “significant anxiolytic-like increase”.
